Where a SMILES comes first, the peptide text is derived from it. [ ]: non-standard residue; d: D form. The star is where a group is joined. Nle = CCCC[C@H](N)C(=O)O; Cbz = O=C(OCc1ccccc1)*
Legend:
proteasome [1] = target: T1, proteasome (Homo sapiens, UniProt P28074); assay: Jurkat IκB-Bla reporter assay, inhibition of the TNFα-stimulated decrease in reporter level by proteasome inhibitors; format: cell-based
T1 construct: other: Jurkat IκB-Bla cells, TNFα stimulation; effect on the TNFα-stimulated decrease in reporter level; other: 10 μM for 60 minutes prior to TNFα 10 ng/ml; CCF2/AM
T1 sequence (P28074 60-263): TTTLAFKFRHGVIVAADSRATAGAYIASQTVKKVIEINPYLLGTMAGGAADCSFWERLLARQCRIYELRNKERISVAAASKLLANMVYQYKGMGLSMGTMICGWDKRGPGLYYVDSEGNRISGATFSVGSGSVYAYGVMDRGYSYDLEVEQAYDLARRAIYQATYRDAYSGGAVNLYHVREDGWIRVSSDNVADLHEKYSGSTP
T1 sequence (P28072 35-239 partner): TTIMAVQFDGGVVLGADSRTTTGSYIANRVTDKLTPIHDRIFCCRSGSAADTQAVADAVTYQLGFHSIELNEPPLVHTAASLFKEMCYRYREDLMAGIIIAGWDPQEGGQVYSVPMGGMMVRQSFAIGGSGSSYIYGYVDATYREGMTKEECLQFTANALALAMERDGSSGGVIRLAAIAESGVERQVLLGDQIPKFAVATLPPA
T1 sequence (Q99436 44-277 partner): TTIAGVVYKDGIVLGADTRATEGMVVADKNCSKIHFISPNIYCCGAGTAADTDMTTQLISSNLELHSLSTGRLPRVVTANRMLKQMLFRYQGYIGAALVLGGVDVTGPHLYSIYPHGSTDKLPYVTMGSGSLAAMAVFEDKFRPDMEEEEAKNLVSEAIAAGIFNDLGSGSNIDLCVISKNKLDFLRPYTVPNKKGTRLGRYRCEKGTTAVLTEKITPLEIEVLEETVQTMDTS
Description: (§1) Therefore, the requirement of proteasome activity on β-lactamase activity was tested. […] Reporter activity was determined using CCF2/AM.

proteasome [2] = assay: as above; format: cell-based, Human; conditions: 10 μM, no TNFα; FIG. 10
Description: as §1

Jurkat IκB-Bla cells = assay: Responsiveness of Jurkat IκB-Bla cells to proinflammatory treatments that activate the NFκB pathway; format: cell-based
Description: The responsiveness of the Jurkat IκB-Bla cells to proinflammatory treatments known to activate the NFκB pathway was tested. Cells were treated with 10 ng/ml TNFα, 10 nM PMA, 10 μg/ml PHA or 100 ng/ml IL-1β for the times indicated in FIG. 8A and then loaded with CCF2 and read on a fluorescence plate reader. […] The apparent insensitivity to IL-1β may be explained by low expression of IL-1 receptor in Jurkat cells.
To establish that the TNFα-stimulated decrease in β-lactamase activity was due to phosphorylation of IκB on serines-32 and -36, the responsiveness of Jurkat cells expressing the S32A, S36A IκB mutant as a fusion with β-lactamase was tested. The IκB(S32A, S36A)-Bla cell line was created exactly as described above for wild-type IκB-Bla cells. The cells were treated with 10 ng/ml TNFα for 30 minutes and then loaded with CCF2/AM. As shown in the comparison of wild-type construct to mutant in FIGS. 9A and 9B, respectively, the mutation of serines-32 and -36 abolished the decrease in β-lactamase activity in response to TNFα treatment.

## CCCC[C@@H](C=O)NC(=O)[C@H](CC(C)C)NC(=O)[C@H](CC(C)C)NC(C)=O [ALLN] (Ac-Leu-Leu-[Nle]-aldehyde)
Proteasome [1]; Jurkat IκB-Bla cells, TNFα stimulation, data not shown, read-out: IC50 for inhibition of the TNFα-stimulated decrease in reporter levels
  IC50: 5 µM

## CC(C)C[C@@H](C=O)NC(=O)[C@H](CC(C)C)NC(=O)[C@H](CC(C)C)NC(=O)OCc1ccccc1 [MG132] (Cbz-Leu-Leu-Leu-aldehyde)
Proteasome [1]; 10 μM for 60 minutes prior to TNFα 10 ng/ml, CCF2/AM, FIG. 10
  effect on the TNFα-stimulated decrease in reporter level: efficiently inhibited
Proteasome [2]
  effect of inhibitor alone on reporter levels: little to no effect

## C[C@@H]1C[C@@H]([C@H](O)CC2CC(=O)NC(=O)C2)C(=O)[C@@H](C)C1 [cycloheximide]
Jurkat IκB-Bla cells; 100 μg/ml added at the time of TNFα addition (10 ng/ml, 30 minutes), FIG. 9
  effect of blocking protein synthesis on the TNFα-stimulated decrease in β-lactamase activity: did not have a strong synergistic effect

## IL-1β: proinflammatory cytokine; low IL-1 receptor expression in Jurkat cells suggested
Jurkat IκB-Bla cells; 10 nM PMA, 10 μg/ml PHA or 100 ng/ml IL-1β, extended treatment for PMA and PHA, FIG. 8A
  response of IκB-Bla reporter level (β-lactamase activity) to treatment: insensitivity

## TNFα
Jurkat IκB-Bla cells; 10 ng/ml, within 30 minutes, CCF2, FIG. 8A
  decrease in β-lactamase activity: 2 fold

From patent US7250268B2, “Assay for measuring IκB kinase activity and identifying IκB kinase modulators” (Bristol-Myers Squibb Company, priority 2003, dated 2007)
